Measured values published in the supplement of paper PMC10307832.

What was measured:
Experiment in all cases: relative viability (nuclei count vs DMSO), 5 days (fraction); higher = more cells survive
NCI-H1355 = tested on: NCI-H1355
In short: (§1)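 After 5 days of treatment, lung cancer cells in 1536-well plates were fixed and stained in a single step (final 0.05% Triton X-100, 1% formaldehyde, 1 ug/ml Hoechst) and their nuclei counted on 4× images. Treatment had been applied by pin tool the day after seeding as one drug alone or as a fixed anchor-drug dose with five library-drug doses (not always all listed) in √10 steps. Relative viability is the nuclei count of treated wells divided by that of vehicle wells, and values are medians of duplicate plates.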

NCI-H2126 = tested on: NCI-H2126
In short: as §1

LK-2 = tested on: LK-2
In short: as §1

Calu-6 = tested on: Calu-6
In short: as §1

NCI-H1703 = tested on: NCI-H1703
In short: as §1

EBC-1 = tested on: EBC-1
In short: as §1

A549 = tested on: A549
In short: as §1

IA-LM = tested on: IA-LM
In short: as §1

NCI-H1299 = tested on: NCI-H1299
In short: as §1

Compound	relative viability (NCI-H1355; first compound 0.08 µM)	relative viability (NCI-H1355; first compound 0.253 µM)	relative viability (NCI-H1355; first compound 0.8 µM)	relative viability (NCI-H1355; first compound 2.53 µM)	relative viability (NCI-H2126; first compound 0.08 µM)	relative viability (NCI-H2126; first compound 0.253 µM)	relative viability (NCI-H2126; first compound 0.8 µM)	relative viability (NCI-H2126; first compound 2.53 µM)	relative viability (LK-2; first compound 0.08 µM)	relative viability (LK-2; first compound 0.253 µM)	relative viability (LK-2; first compound 0.8 µM)	relative viability (LK-2; first compound 2.53 µM)	relative viability (Calu-6; first compound 0.08 µM)	relative viability (Calu-6; first compound 0.253 µM)	relative viability (Calu-6; first compound 0.8 µM)	relative viability (Calu-6; first compound 2.53 µM)	relative viability (NCI-H1703; first compound 0.08 µM)	relative viability (NCI-H1703; first compound 0.253 µM)	relative viability (NCI-H1703; first compound 0.8 µM)	relative viability (NCI-H1703; first compound 2.53 µM)	relative viability (EBC-1; first compound 0.08 µM)	relative viability (EBC-1; first compound 0.253 µM)	relative viability (EBC-1; first compound 0.8 µM)	relative viability (EBC-1; first compound 2.53 µM)	relative viability (A549; first compound 0.08 µM)	relative viability (A549; first compound 0.253 µM)	relative viability (A549; first compound 0.8 µM)	relative viability (A549; first compound 2.53 µM)	relative viability (IA-LM; first compound 0.08 µM)	relative viability (IA-LM; first compound 0.253 µM)	relative viability (IA-LM; first compound 0.8 µM)	relative viability (IA-LM; first compound 2.53 µM)	relative viability (NCI-H1299; first compound 0.08 µM)	relative viability (NCI-H1299; first compound 0.253 µM)	relative viability (NCI-H1299; first compound 0.8 µM)	relative viability (NCI-H1299; first compound 2.53 µM)	relative viability (NCI-H1355; first compound 8 µM)	relative viability (NCI-H2126; first compound 8 µM)	relative viability (LK-2; first compound 8 µM)	relative viability (A549; first compound 8 µM)
Oc1nc(-c2ccc(C(F)(F)F)cc2)nc2c1CSCC2 [XAV939] + CC(=O)Nc1cccc(-n2c(=O)n(C3CC3)c(=O)c3c(Nc4ccc(I)cc4F)n(C)c(=O)c(C)c32)c1 [Trametinib] (partner 0.02 µM)	0.367	0.336	0.38	0.291	0.458	0.44	0.478	0.392	0.788	0.792	0.703	0.535	–	–	–	–	–	–	–	–	–	–	–	–	–	–	–	–	–	–	–	–	–	–	–	–	–	–	–	–
Oc1nc(-c2ccc(C(F)(F)F)cc2)nc2c1CSCC2 [XAV939] + O=C(c1cc(Cc2n[nH]c(=O)c3ccccc23)ccc1F)N1CCN(C(=O)C2CC2)CC1 [Olaparib] (partner 8 µM)	0.729	0.617	0.692	0.487	0.962	0.839	0.865	0.855	0.607	0.669	0.84	0.657	0.556	0.547	0.544	0.504	0.415	0.236	0.408	0.485	0.722	0.623	0.619	0.607	0.357	0.265	0.246	0.19	0.824	0.633	0.728	0.699	0.937	0.883	0.931	0.914	–	–	–	–
Oc1nc(-c2ccc(C(F)(F)F)cc2)nc2c1CSCC2 [XAV939] + Nc1ncn([C@H]2C[C@H](O)[C@@H](CO)O2)c(=O)n1 [Decitabine] (partner 2 µM)	0.357	0.309	0.393	0.298	0.559	0.537	0.595	0.481	0.263	0.322	0.318	0.189	–	–	–	–	–	–	–	–	–	–	–	–	0.291	–	0.315	0.228	–	–	–	–	–	–	–	–	–	–	–	–
C=C1C(=O)O[C@@H](CCCCCCCC)[C@@H]1C(=O)O [C-75] + Nc1ncn([C@H]2C[C@H](O)[C@@H](CO)O2)c(=O)n1 [Decitabine] (partner 2 µM)	0.333	0.374	0.36	0.324	0.598	0.617	0.609	0.561	0.309	0.374	0.306	0.232	–	–	–	–	–	–	–	–	–	–	–	–	0.27	0.255	0.273	0.35	–	–	–	–	–	–	–	–	0.355	0.534	0.271	0.215
Oc1nc(-c2ccc(C(F)(F)F)cc2)nc2c1CSCC2 [XAV939] + NC(=O)Nc1cc(-c2cccc(F)c2)sc1C(=O)N[C@H]1CCCNC1 [AZD7762] (partner 0.2 µM)	0.728	0.613	0.626	0.561	1.04	0.912	0.943	0.882	0.375	0.429	0.344	0.238	–	–	–	–	0.156	0.137	0.138	0.111	–	–	–	–	–	–	–	–	–	–	–	–	–	–	–	–	–	–	–	–
